{"source": "patent US7556828B2", "about": "“Pharmaceutical composition for treatment of BPH and preparation thereof” (priority 2003, dated 2009)", "key": {"[1]": {"test_system": "prostate hyperplasia caused by testosterone propionate", "assay": "Prostate hyperplasia caused by testosterone propionate in rats, comparison of anti-prostate hyperplasia medicaments (Experimental Example 1)", "format": "in vivo, Wistar rats", "details": "for Prostate Gland Factors, Sum of three lobes (anterior, head and posterior lobes) / Inhibition rate % (Anterior lobe) / Inhibition rate % (Sum of three lobes): 30 days; for Inhibition rate % (Anterior lobe) / Inhibition rate % (Sum of three lobes): vs contrast group; for Prostate Gland Factors, Anterior lobe: once a day for 30 days, castrated rats + testosterone propionate 5 mg/Kg", "experimental": "The effect of anti-prostate hyperplasia medicaments and the composition of the present invention in rats on prostate hyperplasia caused by testosterone propionate was evaluated as discussed below.\n• 1. PROSCAR (5-α-reductase inhibitor): tablets, produced by Merck & Co., Inc., (UK) Co., prepared as 0.5 mg/ml medicament. • 2. Saw Palmetto tablets, produced by Zhejiang Conba Pharmaceutical Co. Ltd., prepared with distilled water into […]. • 3. Longbishu Capsules: produced by SHIJIAZHUAN KEDI Pharmaceutical Co., Ltd., prepared with distilled water into 0.18 g/ml medical liquid. • 4. The final extract of Example 9, prepared into […] medical liquid. • 5. Estradiol Benzoate injection • 6. Testosterone propionate injection Test Method and Results\n[…] 130 g-150 g male Wistar rats were anaesthetized with ether. The testes of each rat were removed under axenic conditions, and the test rats were bred for a week after operation. The rats were divided at random into 6 groups, with 6 rats in each group. All groups of animals were hyped each day with 5 mg/Kg testosterone propionate dissolved in prepared peanut oil. The control (contrast) groups were administered a physiological salt solution. The test groups were administered a treatment of 5 mg/Kg PROSCAR, 5 g/Kg Saw Palmetto, 1.8 g/Kg longbishu, and 6 g/Kg of the final extract obtained in Example 9 The treatment took the form of a1 ml/100 g medicament; for hypodermic injections of 50 μg/Kg estradiol benzoate, the volume was […], administered once a day for 30 days. 24 hours after the final treatment, all the rats were killed. The whole prostate glands were anatomized and placed in formalin. Extraneous fat was cut away from the prostate glands and the liquid on the surface was dried with filter papers. The prostate glands were then weighed with a tissue balance to calculate the weight."}, "[2]": {"test_system": "otic swelling caused by mixed inflammatory solution of croton oil", "assay": "Otic swelling caused by mixed inflammatory solution of croton oil", "format": "in vivo, mice", "details": "20 mg/kg once a day for 5 days", "experimental": "1. Impact on Otic Swelling Caused by Mixed Inflammatory Solution of Croton Oil. […] The treatments were administered to the mice once a day for 5 days. […] Four hours after inflammation, the mice were killed with a disjointed cervical vertebra method. The two ears were cut along the auricle baseline. Equal parts of the two ears (by area) were cut off and weighed on weighing scales to test twisting force. The degree of swelling/inflammation was obtained by subtracting the weight of the right ear from the weight of the left ear. The degrees of swelling between the control (contrast) groups and the test groups were analyzed statistically and the swelling inhibition rate was obtained."}, "[3]": {"test_system": "tampon granuloma", "assay": "Tampon granuloma of rats", "format": "in vivo", "details": "20 mg/kg once a day for 7 days", "experimental": "Impact on Tampon Granuloma of Rats The same experimental materials and animals as in Experimental Example 2 were used. However, sixty (60) 150-180 g male rats were used. Under ether anesthesia and normal disinfection, two±1 mg sterilized tampons were embedded under the inguinal skins on either side of the bodies. […] The treatments were administered into the rats' stomachs once a day for 7 days. On the eighth day, the rats were killed via a disjointed cervical vertebra method. The tampons were removed and placed in a 60° C. oven for 12 hours and then weighed."}, "[4]": {"test_system": "testosterone propionate-induced prostate hyperplasia", "assay": "Testosterone propionate-induced prostate hyperplasia in rats (Experimental Example 5)", "format": "in vivo, Wistar rats", "experimental": "Impact on Testosterone Propionate-Induced Prostate Hyperplasia in Rats\nThe same experimental materials and animals as in Experimental Example 2 were used. However, fifty (50) 130-150 g male Wistar rats were used. Under ether anesthesia and in sterilized surroundings, both testes of each rat were removed. The rats were then bred for a week after the operation. Next, the rats were randomly divided into 5 groups of 10 rats each. Each group of animals were hyped with 5 mg/kg testosterone propionate dissolved in prepared oil once a day. During the same time period, each group was also given one of the treatments: the control (contrast) group was administered a physiological saline solution; three test groups were administered a dose (1.5, 3 and 6 g/kg) of the extract from Example 9 in a preparation of 1 m/100 g. The positive control (contrast) group was hyped with 50 μg/kg estradiol benzoate in a volume of 0.05 ml/100 g, once a day for 30 days. After the last treatment, the rats were killed and their whole prostate glands were anatomized. The prostate glands were placed in formalin. All the fat was cut away from the prostate glands after they were removed from the formalin. The remaining formalin on the prostate gland surface was dried with filter papers. The prostate glands were then placed in 70% ethanol and fixed for 24 hours. Next, the prostate glands were removed from the ethanol and placed on filter papers. The anterior, head and posterior lobes of the prostate glands were separated and weighed on a weighing scale to test twisting force. The transverse diameter, diameter and height of the anterior lobes of the prostate glands were measured with a two-foot vernier. The volume of the anterior lobe of a prostate gland was obtained by multiplying the values of the three measurements. Finally, the anterior lobes were examined with tectology, and the diameter of the prostate gland cavity and the height of the glandular epithelium cells were measured. Non-pairing t-examinations among the groups were conducted for all indexes. The values of the treatment groups were compared to the control (contrast) groups in order to determine the average difference."}, "[5]": {"details": "dose 50 g/Kg (so in the source), hypodermic"}, "[6]": {"details": "50 μg/kg once a day for 30 days"}, "[7]": {"details": "estradiol benzoate 50 μg/kg, 30 days, vs control"}}, "note": "Marks after values point to notes of the source that are not given here.", "data": [{"smiles": "CC(C)(C)NC(=O)[C@H]1CC[C@H]2[C@@H]3CC[C@H]4NC(=O)C=C[C@]4(C)[C@H]3CC[C@]12C", "note": "[PROSCAR]", "values": [{"measurement": "Prostate Gland Factors, Sum of three lobes (anterior, head and posterior lobes)", "setting": "[1]; dose 5 mg/Kg", "value": "453.4 ± 59.1", "unit": "mg/100 g"}, {"measurement": "Inhibition rate % (Anterior lobe)", "setting": "[1]; dose 5 mg/Kg", "value": "42.3** %"}, {"measurement": "Inhibition rate % (Sum of three lobes)", "setting": "[1]; dose 5 mg/Kg", "value": "37.1** %"}, {"measurement": "Prostate Gland Factors, Anterior lobe", "setting": "[1]; dose 5 mg/Kg", "value": "164.2 ± 31.4", "unit": "mg/100 g"}]}, {"smiles": "CC(=O)OCC(=O)[C@@]1(O)CC[C@H]2[C@@H]3CCC4=CC(=O)CC[C@]4(C)[C@H]3[C@@H](O)C[C@@]21C", "note": "[Hydrocortisone, Hydrocortisone acetate]", "values": [{"measurement": "Inhabitation rate %", "setting": "[2]", "value": 46.77, "unit": "%"}, {"measurement": "Swelling degree (mg) (x ± SD)", "setting": "[2]; 4 hours after croton oil", "value": "9.50 ± 2.93", "unit": "mg"}, {"measurement": "Inhibition rate %", "setting": "[3]", "value": 42.43, "unit": "%"}, {"measurement": "Weight of tampon granuloma (mg x ± SD)", "setting": "[3]", "value": "26.45 ± 2.61", "unit": "mg"}]}, {"smiles": "C[C@]12CC[C@@H]3c4ccc(OC(=O)c5ccccc5)cc4CC[C@H]3[C@@H]1CC[C@@H]2O", "note": "[estradiol benzoate, Estradiol Benzoate]", "values": [{"measurement": "Prostate Gland Factors, Sum of three lobes (anterior, head and posterior lobes)", "setting": "[1]; [5]", "value": "585.3 ± 80.5", "unit": "mg/100 g"}, {"measurement": "Inhibition rate % (Anterior lobe)", "setting": "[1]; [5]", "value": "36.7** %"}, {"measurement": "Inhibition rate % (Sum of three lobes)", "setting": "[1]; [5]", "value": "18.8** %"}, {"measurement": "Prostate Gland Factors, Anterior lobe", "setting": "[1]; [5]", "value": "180.1 ± 55.8", "unit": "mg/100 g"}, {"measurement": "Volume of anterior lobe (cm3)", "setting": "[4]; [6]", "value": "0.42 ± 0.12", "unit": "cm3"}, {"measurement": "rat prostate factors, Anterior lobe", "setting": "[4]; [6]", "value": "127.2 ± 23.4", "unit": "mg/100 g"}, {"measurement": "rat prostate factors, Head lobe", "setting": "[4]; [6]", "value": "51.2 ± 10.7", "unit": "mg/100 g"}, {"measurement": "hyperplasia of the diameter of the glandular cavity of prostate anterior and head lobes (histology)", "setting": "[4]; 30 days after treatment, microscopic examination", "value": "inhibit hyperplasia"}, {"measurement": "inhibition rate for head lobes (weight)", "setting": "[4]; [7]", "value": 30.2, "unit": "%"}, {"measurement": "inhibition rate for posterior lobe (weight)", "setting": "[4]; [7]", "value": 12.5, "unit": "%"}, {"measurement": "inhibition rate for prostate anterior lobe (weight)", "setting": "[4]; [7]", "value": 35.3, "unit": "%"}, {"measurement": "inhibition rate, volume of prostate anterior lobe", "setting": "[4]; [7]", "value": 45.5, "unit": "%"}]}]}
